pIC50: −log10 of the molar value.

The test system of experiment [1] is Plasmodium falciparum W2 clone (Indochina, chloroquine-resistant). Put plainly: In vitro antimalarial assay, chloroquine-resistant W2 clone. It counts as cell-based. The note with it: W2 clone; for pIC50: converted with molecular weight, read-out: P. falciparum W2 IC50; for X more potent than chloroquine: molar IC50 ratio versus chloroquine. The method, boiled down:
(§1)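 Parasites grown in type A human RBCs; assay run on infected cell suspension at 2% parasitemia and 2% hematocrit, in duplicate at several concentrations. IC50 taken from dose curves, per the Makler method, with DMSO as vehicle; Vero cytotoxicity run in parallel to derive a selectivity index.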

For the next experiment, the system named is S. mansoni adult worms. Description: In vitro tests on Schistosoma mansoni adult worms, viability score. It counts as cell-based. How it is done: All assays were prepared in compliance with the laboratory SOP described herein above. Female NMRI mice (age 3 weeks, weight ca. 14 g) were purchased from Charles River (Sulzfeld) or Harlan Laboratories (Blackthorn, United Kingdom). The animals were allowed to adapt for 1 week under controlled conditions (22° C., 50% humidity, 12 hours light, and free access to water and rodent diet) before experimental handling. To obtain adult schistosomes, NMRI mice were infected subcutaneously with 80 to 100 cercariae. After 7 to 8 weeks, the mice were euthanized with CO2, and the worms were collected from the hepatic portal and mesenteric veins. Two pairs of adult worms were placed in each well of a 24-well plate with 2 ml culture medium and the test compound. […] Worms were kept in an incubator at 37° C. and 5% CO2 for up to 72 hours. After 72 hours, worm condition was microscopically evaluated using a scale from 3 (normal activity and no tegument alteration) to 0 (dead, completely granulated). Active compounds progressed into IC50 determination. […] For the in vitro drug sensitivity assays, all viability scores were averaged across replicates and normalized to the average viability scores of the control wells (Microsoft Office Excel 2010). […]

Experiment [2] has as its system S. mansoni newly transformed schistosomula (NTS). Put plainly: In vitro testing on Schistosoma mansoni newly transformed schistosomula (NTS), viability score. The note with it: for IC50: NTS, 72 hours post-incubation. It is filed as cell-based. The method, boiled down: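 Mechanically transformed S. mansoni (Liberian strain) NTS, cultured overnight, exposed at 100 per well to compound (from 10 mM DMSO stock; ≤1% DMSO controls) at 37 °C, 5% CO2 for 72 h. Viability scored microscopically from 3 (normal activity, intact tegument) to 0 (dead, granulated).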

Experiment [3] concerns Plasmodium falciparum D6 clone (Sierra Leon, chloroquine-sensitive). Description: In vitro antimalarial assay, chloroquine-sensitive D6 clone. It counts as cell-based. The note with it: D6 clone; for pIC50: converted with molecular weight, read-out: P. falciparum D6 IC50; for X more potent than chloroquine: molar IC50 ratio versus chloroquine. The method, boiled down: as §1

Experiment [4] has as its system methicillin-resistant S. aureus ATCC 33591 (MRS). Put plainly: Antibacterial broth dilution assay against MRSA (modified CLSI). It counts as cell-based, Staphylococcus aureus. The note with it: for MRSa IC50 / pIC50: in vitro; for pIC50: converted with molecular weight; for X more potent than ciprofloxacen: molar IC50 ratio versus ciprofloxacen. An outline of the steps: (§2)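 Growth read by optical density at 530 nm, duplicate wells, 1% final DMSO. Staphylococcus spp.: Mueller-Hinton pH 7.3, 5.0×10^5 CFU/ml, 35 °C for 16-20 h; Candida spp.: RPMI/dextrose/glutamine/MOPS pH 6.0, 1.5×10^3 CFU/ml, 35 °C for 46-50 h. Reported values are 50% inhibition versus controls, no-growth MIC, and killing MFC/MBC.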
For orientation: Dilution methods test growth across graded concentrations, often in twofold steps.

Experiment [5] deals with Staphylococcus aureus ATCC 29213. Put plainly: Antibacterial broth dilution assay against S. aureus (modified CLSI). It counts as cell-based. The note with it: for S. aureus IC50 / pIC50: in vitro; for pIC50: converted with molecular weight; for X more potent than ciprofloxacen: molar IC50 ratio versus ciprofloxacen. The method, boiled down:
as §2

The subject of experiment [6] is L. donovani promastigotes. Put plainly: Antileishmanial Alamar Blue assay on promastigotes. It is filed as cell-based, Leishmania donovani. The method, boiled down:
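Alamar Blue fluorescence (544/590 nm) quantified growth after 48 hours at 26° C of compound-treated promastigotes. Parasites were seeded at 5×10^5/mL in RPMI 1640 plus 10% FCS; drug range 50-3.1 μg/mL, and IC50 derived by plotting percent growth against test concentration.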
(In general: The colour change of resazurin is a common sign of viable cells or microbes.)

The next experiment concerns C. glabrata ATCC 90030. Put plainly: Antifungal broth dilution assay against C. glabrata (modified CLSI). It is filed as cell-based, Candida glabrata. An outline of the steps:
as §2

As for `CN1CCCN2CCN(CCCN(Cc3ccccc3)CC2)CC1.[Cl-].[Cl-].[Fe+2]` [NS12], in experiment [1], the “P. falciparum W2 IC50” value is 0.1164 µg/mL. Also, the figures for the pIC50 in experiment [1] and in experiment [3] were 6.59 and 6.52, respectively. The figures for the “X more potent than chloroquine” value in experiment [1] and in experiment [3] were 2.67 and 0.12, respectively. Besides, the “Effect at 72 h (%)” value is 2.08% with S. mansoni adult worms (adult S. mansoni at 10 μM, 72 h); 100.00% in experiment [2] (NTS S. mansoni at 10 μM); 100.00% in experiment [2] (NTS S. mansoni, 33 μM). In addition, in experiment [2], the IC50 – broadly, the midpoint of a concentration-inhibition curve – was 6.69 µM. Also, the “P. falciparum D6 IC50” value in experiment [3] amounted to 0.1371 µg/mL.
Take `[Cl-].[Cl-].[Mn+2].c1ccc(CN2CCCN3CCN(CCCN(Cc4ccccc4)CC3)CC2)cc1` [NS06, Mn(Bn2Bcyclam)Cl2]: in experiment [4], the “MRSa IC50” value came out at 1.510 µg/mL; the pIC50 – broadly, −log10 of the IC50, conventionally taken in molar units – is 5.55; the “X more potent than ciprofloxacen” value was 0.07. For the same compound, in experiment [5], the “S. aureus IC50” value came out at 2.310 µg/mL, the pIC50 is 5.36 and the “X more potent than ciprofloxacen” value turned out to be 0.06. Further, the “X more potent than Pentamidine” value in experiment [6] (L. donovani, ratio of molar IC50 to Pentamidine) came out at 0.13. The “L. donovani IC50” value in experiment [6] (promastigotes, 48 hours, Alamar Blue) is 21.99 µg/mL. Moreover, the pIC50 in experiment [6] (promastigotes, 48 hours, Alamar Blue, read-out: L. donavani IC50) is 4.38. Further, in experiment [1], the “P. falciparum W2 IC50” value amounted to 0.0674 µg/mL, the pIC50 is 6.90 and the “X more potent than chloroquine” value was found to be 5.36. In addition, the “Effect at 72 h (%)” value in experiment [2] (NTS S. mansoni, 33 μM) stood at 81.08%. Moreover, in experiment [3], the “P. falciparum D6 IC50” value was 0.0838 µg/mL, the pIC50 was 6.80 and the “X more potent than chloroquine” value was found to be 0.23.
For the compound `O=C(C1CCCCC1)N1CC(=O)N2CCc3ccccc3C2C1` (centres unmarked) [Praziquantel, reference compound], the 50% inhibitory concentration (IC50) with S. mansoni adult worms (Schistosoma mansoni, adult worms, 72 hours post-exposure, read-out: IC50 [μM] Adults) worked out at 0.1 µM; in experiment [2] (Schistosoma mansoni), 2.2 µM.
Consider `CN1CCCN2CCN(CCCN(Cc3ccc(CN4CCCN5CCN(C)CCCN(CC5)CC4)cc3)CC2)CC1.[Cl-].[Cl-].[Cl-].[Cl-].[Mn+2].[Mn+2]` [JGL16A], for which, in experiment [4], the “MRSa IC50” value amounted to 7.770 µg/mL, the pIC50 was 5.03 and the “X more potent than ciprofloxacen” value was determined as 0.02. In addition, in experiment [5], the “S. aureus IC50” value came to 8.090 µg/mL, the pIC50 is 5.01 and the “X more potent than ciprofloxacen” value is 0.03. Further, in experiment [1], the “P. falciparum W2 IC50” value came to 0.8002 µg/mL, the pIC50 was 6.02 and the “X more potent than chloroquine” value was 0.71. Also, the “Effect at 72 h (%)” value in experiment [2] (NTS S. mansoni, 33 μM) worked out at 5.41%. Further, in the experiment on C. glabrata ATCC 90030 (in vitro), the “C. glabrata IC50” value was determined as 18.600 µg/mL. The compound further gave a pIC50 in the experiment on C. glabrata ATCC 90030 (in vitro, converted with molecular weight) of 4.65. For the same compound, in the experiment on C. glabrata ATCC 90030 (molar IC50 ratio versus amphotericin B), the “X more potent than Amphotericin B” value is recorded as 0.06. For the same compound, in experiment [3], the “P. falciparum D6 IC50” value is 0.7989 µg/mL, the pIC50 was 6.02 and the “X more potent than chloroquine” value came to 0.04.

The values are drawn from patent US12139481B2, “Compositions comprising macrocycle derivatives incorporating bridged macrocycles and methods of producing and using same” (Southwestern Oklahoma State University, priority 2015, dated 2024).
